The values that follow are results of earlier work, collected in patent US20110034507A1, “FARNESOID X RECEPTOR AGONISTS” (SMITHKLINE BEECHAM CORPORATION, priority 2007, published 2011).

Molecules are shown by their SMILES. “Also recorded” adds a separate entry of the source.

Data set [1] deals with hepatic stellate cells (HSC). The note with it: cultured HSCs; cited from earlier work.
For data set [2], the system named is rodent models of hepatic fibrosis. The note with it: multiple rodent models; cited from earlier work.
For data set [3], the system named is C57BL mice on high-fat diet. Particulars: cited from earlier work.
For another data set, the system named is ob/ob mice. The note with it: 30 mg/kg intraperitoneally, male ob/ob mice; cited from earlier work.
The next data set deals with db/db mice. The note with it: cited from earlier work.
The subject of the next data set is bile duct-ligated mouse. The note with it: cited from earlier work.
Data set [4] has as its system mice on a lithogenic diet. The note with it: cited from earlier work.
Where [5] appears, read: GW4064 100 mg/kg twice a day orally.

Turning to `CC[C@H]1[C@@H](O)[C@@H]2[C@H](CC[C@]3(C)[C@@H]([C@H](C)CCC(=O)O)CC[C@@H]23)[C@@]2(C)CC[C@@H](O)C[C@@H]12` [Example 6EtCDCA, 6-ethyl-chenodeoxycholic acid], in data set [1], the “expression of α1(I)collagen” value is “decreased” and the “expression of α-smooth muscle actin” value was “decreased”. For the same molecule, in data set [2], the hepatic fibrosis entry was “prevent development and promote resolution”.
Turning to `CC(C)c1onc(-c2c(Cl)cccc2Cl)c1COc1ccc(/C=C/c2cccc(C(=O)O)c2)c(Cl)c1` [GW4064], the “body weight (high-fat diet induced body weight gain)” value in data set [3] (GW4064 100 mg/kg twice a day orally, 100 mg/kg) is “decreased; also recorded: reduced”. In data set [3] (GW4064 100 mg/kg twice a day orally, GTT, 100 mg/kg), the glucose tolerance entry is given as “corrected glucose intolerance; also recorded: appeared to improve”. Besides, in data set [3] (setting [5]), the liver triglyceride content result was “reduced”, the serum glucose result is listed as “decreased”, the serum insulin result is recorded as “decreased” and the serum triglyceride entry was “decreased”. For the same molecule, in data set [3], the body fat mass result is given as “decreased” and the total cholesterol result is given as “decreased”. In the data set on ob/ob mice, the body weight entry is on record as “did not alter”, the fasting blood glucose result is “no effect”, the food intake entry was “did not alter” and the glucose tolerance result was “improved”. Also, in the data set with ob/ob mice, the insulin concentration entry was “decreased” and the insulin sensitivity entry was “enhanced”. For the same molecule, in the data set with db/db mice (db/db mice), the “glycogen storage in the liver” value is “enhanced” and the “insulin signalling in the liver” value is on record as “enhanced”. Besides, in the data set with db/db mice (diabetic db/db mice), the hyperglycemia result is listed as “significantly improved” and the hyperlipidemia entry was “significantly improved”. In the data set on db/db mice (oral 30 mg/kg, bid, db/db mice), the NEFA entry is listed as “decreased”, the blood glucose result is on record as “decreased”, the serum hydroxybutyrate entry is “decreased” and the total cholesterol entry was “decreased”. The triglyceride entry in the data set with db/db mice (oral 30 mg/kg, bid, db/db mice) was “decreased”. In the data set with bile duct-ligated mouse (FXR null mice), the “effect on translocation of bacteria in FXR null mice” value is given as “lost”. Besides, in the data set with bile duct-ligated mouse (bile duct-ligated mouse), the bacterial overgrowth result is listed as “decreased”, the mucosal barrier entry is recorded as “improved” and the “translocation of bacteria to mesenteric lymph nodes” value is reported as “decreased”. The “effect on cholesterol crystal formation in FXR null mice” value in data set [4] (FXR null mice) was “lost”. Besides, in data set [4] (mice on a lithogenic diet), the “formation of cholesterol crystals in the bile” value is “prevented”.
